Measurements taken from patent US20070275936A1, “Formulations and Treatment Methods” (priority 1998, published 2007).

Molecular target: chloroquine resistant KI P. falciparum
Type: cell-based
Description: Triplicate readings were made for each concentration.
The testing was carried out according to the procedure of Desjardins et al. 1979. After 30 hr culture at 37 degrees C., the same microtiter plates from schizont inhibition assays with another triplicate wells were pulsed with ^3H-hypoxanthine for overnight. The cell suspensions were washed twice on millipore glass fiber filter with Millipore filter apparatus. […] The activity of the drug was measured by plotting DPM against concentration of drug.

Compound	IC50
C[C@]12CC[C@H](O)C[C@@H]1CC[C@@H]1[C@@H]2CC[C@]2(C)C(=O)[C@H](Cl)C[C@@H]12 [16-chloroepiandrosterone, 16α-chloroepiandrosterone]	˜9.25 μg/mL
C[C@]12CC[C@H](O)CC1=CC[C@@H]1[C@@H]2CC[C@]2(C)C(=O)[C@H](Br)C[C@@H]12 [DHEA-Br, 16α-bromodehydro-epiandrosterone]	˜25.0 μg/mL
